# Test results from the supplement of paper PMC11208160.
# Assay: recombinant UMI read abundance after kanamycin selection (control-corrected) (log10(CPM+1)); higher = more efficient recombination; extreme values may be limits of the assay; sequences stand for … in AGTGCAGAGAAAATCGGCCAGTTTTCTCTGCCTGCAGTCCGCATGCCGTGGGACCCCTTGGGTTCTAACCTGTTGCCTAGATTTATGCAGCGGACTGCCTTTCTCCCAAAGTGATAAACCGG…AGGTTGGTTTCACT; site = the 11-nt donor
# Procedure, shortened: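 Sequenced counts of recombinant UMIs were turned into CPM, averaged across replicates and scaled with control-derived factors. The reported figure is log10(CPM+1). Those UMIs, each 12 nt long, tagged donor and donor-binding-loop pairs on a plasmid with a promoterless kanamycin gene, screened as a pool in Escherichia coli with IPTG (0.07 mM) plus kanamycin or without selection.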
# 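Also: IS621 bridge recombinase in Escherichia coli cells against a fixed T5 target plasmid.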
row,Sequence,recombinant UMI read abundance (log10)
1,TGGCCGGCATGGACCGGTTTTCCCGGTAATCCGTATTTGGT (site TGGCCGGCTGC),0
2,TGGCCGGCATGGACCGGTTTTCCCGGTAATCCGTATTTGGT (site TGGCCGGCTTC),0.0272
3,TGGCTCACATGGACCGGTTTTCCCGGTAATCCGTATTTGTG (site TGGCTCACTCA),0.0236
4,TGGCTTCCATGGACCGGTTTTCCCGGTAATCCGTATTTGCT (site TGGCTTCCTAG),0
5,TGGGAAACATGGACCGGTTTTCCCGGTAATCCGTATTTGGT (site TGGGAAACTAC),1.29
6,TGGGCCACATGGACCGGTTTTCCCGGTAATCCGTATTTGCA (site TGGGCCACTTG),1.45
7,TGGGCGGCATGGACCGGTTTTCCCGGTAATCCGTATTTGGC (site TGGACGGCTGC),1.49
8,TGGGCGGCATGGACCGGTTTTCCCGGTAATCCGTATTTGGC (site TGGCCGGCTGC),0
9,TGGGCGGCATGGACCGGTTTTCCCGGTAATCCGTATTTGGC (site TGGGCGGCTGC),2.09
10,TGGGCGGCATGGACCGGTTTTCCCGGTAATCCGTATTTGGC (site TGGTCGGCTGC),0
11,TGGGCTACATGGACCGGTTTTCCCGGTAATCCGTATTTGCA (site TGGGCTACTTG),1.79
12,TGGGTAACATGGACCGGTTTTCCCGGTAATCCGTATTTGAC (site TGGGTAACTGT),1.61
13,TGGGTAGCATGGACCGGTTTTCCCGGTAATCCGTATTTGGG (site TGGGTAGCTCC),0
14,TGGGTGACATGGACCGGTTTTCCCGGTAATCCGTATTTGAG (site TGGGTGACTCT),0.83
15,TGGTAACCATGGACCGGTTTTCCCGGTAATCCGTATTTGTG (site TGGTAACCTCA),0.0137
16,TGGTCAACATGGACCGGTTTTCCCGGTAATCCGTATTTGCG (site TGGTCAACTCG),0.0115
17,TGGTCCTCATGGACCGGTTTTCCCGGTAATCCGTATTTGTC (site TGGTCCTCTGA),1.33
18,TGGTCGGCATGGACCGGTTTTCCCGGTAATCCGTATTTGGC (site TGGACGGCTGC),0
19,TGGTCGGCATGGACCGGTTTTCCCGGTAATCCGTATTTGGC (site TGGCCGGCTGC),0.682
20,TGGTCGGCATGGACCGGTTTTCCCGGTAATCCGTATTTGGC (site TGGGCGGCTGC),0.00726
21,TGGTCGGCATGGACCGGTTTTCCCGGTAATCCGTATTTGGC (site TGGTCGGCTGC),0.268
22,TGGTCTGCATGGACCGGTTTTCCCGGTAATCCGTATTTGCG (site ACCGTCTCTGA),0
23,TGGTGTACATGGACCGGTTTTCCCGGTAATCCGTATTTGAA (site TGGTGTACTTT),0.131
24,TGGTTTCCATGGACCGGTTTTCCCGGTAATCCGTATTTGCC (site TGGTTTCCTGG),0
25,TGTAAAGCATGGACCGGTTTTCCCGGTAATCCGTATTTGAC (site TGTAAAGCTGT),0.0139
26,TGTACAACATGGACCGGTTTTCCCGGTAATCCGTATTTGCT (site TGTACAACTAG),0.836

row,Sequence,recombinant UMI read abundance (log10)
1,TGTACCCCATGGACCGGTTTTCCCGGTAATCCGTATTTGTA (site TGTACCCCTTA),0.292
2,TGTACCCCATGGACCGGTTTTCCCGGTAATCCGTATTTGTA (site TGTCCCCCTTA),0.253
3,TGTACCCCATGGACCGGTTTTCCCGGTAATCCGTATTTGTA (site TGTGCCCCTTA),0
4,TGTACCCCATGGACCGGTTTTCCCGGTAATCCGTATTTGTA (site TGTTCCCCTTA),0.00713
5,TGTACCGCATGGACCGGTTTTCCCGGTAATCCGTATTTGGG (site TGTACCGCTCC),0.0251
6,TGTACCTCATGGACCGGTTTTCCCGGTAATCCGTATTTGGG (site TGTACCTCTCC),0.0503
7,TGTACCTCATGGACCGGTTTTCCCGGTAATCCGTATTTGGT (site TGTACCTCTAC),0.0562
8,TGTACGTCATGGACCGGTTTTCCCGGTAATCCGTATTTGTT (site AGTACGTCTAA),0.00241
9,TGTACGTCATGGACCGGTTTTCCCGGTAATCCGTATTTGTT (site CGTACGTCTAA),0.031
10,TGTACGTCATGGACCGGTTTTCCCGGTAATCCGTATTTGTT (site GGTACGTCTAA),0.031
11,TGTACGTCATGGACCGGTTTTCCCGGTAATCCGTATTTGTT (site TGTACGTCTAA),0.00887
12,TGTACTACATGGACCGGTTTTCCCGGTAATCCGTATTTGGT (site TGTACTACTAC),0.00344
13,TGTAGAACATGGACCGGTTTTCCCGGTAATCCGTATTTGCC (site TGTAGAACTGG),0.754
14,TGTAGAACATGGACCGGTTTTCCCGGTAATCCGTATTTGGG (site TGTAGAACTCC),0.00647
15,TGTAGTACATGGACCGGTTTTCCCGGTAATCCGTATTTGAC (site TGTAGTACTGT),0.509
16,TGTATCGCATGGACCGGTTTTCCCGGTAATCCGTATTTGCT (site TGTATCGCTAG),1.57
17,TGTATTTCATGGACCGGTTTTCCCGGTAATCCGTATTTGGG (site TGTATTTCTCC),0.402
18,TGTCGTCCATGGACCGGTTTTCCCGGTAATCCGTATTTGCA (site TGTCGTCCTTG),0.616
19,TGTCTTCCATGGACCGGTTTTCCCGGTAATCCGTATTTGTC (site TGTCTTCCTGA),0
20,TGTGATTCATGGACCGGTTTTCCCGGTAATCCGTATTTGTT (site TGTGATTCTAA),0
21,TGTTAACCATGGACCGGTTTTCCCGGTAATCCGTATTTGTC (site TGTTAACCTGA),0
22,TGTTAGACATGGACCGGTTTTCCCGGTAATCCGTATTTGAG (site AGTTAGACTCT),0.103
23,TGTTAGACATGGACCGGTTTTCCCGGTAATCCGTATTTGAG (site CGTTAGACTCT),0.204
24,TGTTAGACATGGACCGGTTTTCCCGGTAATCCGTATTTGAG (site GGTTAGACTCT),0.0119
25,TGTTAGACATGGACCGGTTTTCCCGGTAATCCGTATTTGAG (site TGTTAGACTCT),0.233
26,TGTTCCGCATGGACCGGTTTTCCCGGTAATCCGTATTTGTC (site TGTTCCGCTGA),1.06
